Assay results from ChEMBL document CHEMBL3817824, “Synthesis and biological evaluation of new [1,2,4]triazolo[4,3-a]pyridine derivatives as potential c-Met inhibitors” (Bioorg Med Chem, 2016).
Calls of active or inactive are those of the source. No cut-off for these calls is given here.

Key:
[1] = molecular target: Hepatocyte growth factor receptor (Homo sapiens, UniProt P08581); test: Inhibition of c-Met (unknown origin) incubated for 1 hr by spectrophotometric analysis
[2] = Cytotoxicity against human SNU5 cells assessed as reduction in cell survival incubated for 3 days by cell titre-glo assay; conditions: SNU-5, 72 h
[3] = Antitumor activity against human MKN45 cells xenografted in nude BALB/c mouse assessed as inhibitory rate at 10 mg/kg, ig measured twice every week; assay type: functional; conditions: MKN-45, po, read-out: TGI
[4] = Antitumor activity against human MKN45 cells xenografted in nude BALB/c mouse assessed as inhibitory rate at 30 mg/kg, ig measured twice every week; assay type: functional; conditions: MKN-45, po, read-out: TGI
[5] = Antitumor activity against human MKN45 cells xenografted in nude BALB/c mouse assessed as inhibitory rate at 60 mg/kg, ig measured twice every week; assay type: functional; conditions: MKN-45, po, read-out: TGI
NCI-H1993 [6] = test: Antitumor activity against human NCI-H1993 cells xenografted in nude BALB/c mouse assessed as inhibitory rate at 10 mg/kg, ig measured twice every week; assay type: functional
NCI-H1993 [7] = test: Antitumor activity against human NCI-H1993 cells xenografted in nude BALB/c mouse assessed as inhibitory rate at 30 mg/kg, ig measured twice every week; assay type: functional; conditions: NCI-H1993, po, read-out: TGI
NCI-H1993 [8] = test: Antitumor activity against human NCI-H1993 cells xenografted in nude BALB/c mouse assessed as inhibitory rate at 60 mg/kg, ig measured twice every week; assay type: functional; conditions: NCI-H1993, po, read-out: TGI
[9] = Apparent oral clearance in Sprague-Dawley rat at 5 mg/kg; assay type: ADME, organism-based; conditions: in vivo
Mus musculus [10] = test: Toxicity in nude BALB/c mouse assessed as effect on body weight at 15 to 225 mg/kg, ig qd for treated for 28 days followed by rehabiliation for 28 days measured during compound dosing and rehabilitation period relative to vehicle control; assay type: organism-based; conditions: in vivo, po, 672 h
Mus musculus [11] = test: Toxicity in nude BALB/c mouse assessed as clinical pathologies at 15 to 225 mg/kg, ig qd for treated for 28 days followed by rehabiliation for 28 days measured on day 56 relative to vehicle control; assay type: organism-based; conditions: in vivo, po, 672 h
Mus musculus [12] = test: Acute toxicity in nude BALB/c mouse assessed as clinical pathologies at 300 to 600 mg/kg, ig qd after 28 days; assay type: organism-based; conditions: in vivo, po, 672 h
[13] = Acute toxicity in ig dosed nude BALB/c mouse administered as qd measured for 14 days; assay type: organism-based; conditions: in vivo, po
[14] = Toxicity in ig dosed nude BALB/c mouse administered as qd treated for 28 days followed by rehabilitation for 28 days; assay type: organism-based; conditions: in vivo, po
Huh-7 = test: Inhibition of ERK phosphorylation in human HuH7 cells at 100 to 1000 nM after 6 to 24 hrs by Western blot analysis; assay type: cell-based
MKN-45 = test: Antitumor activity against human MKN45 cells xenografted in ig dosed nude BALB/c mouse measured twice every week; assay type: functional, organism-based
NCI-H1993 [15] = test: Antitumor activity against human NCI-H1993 cells xenografted in ig dosed nude BALB/c mouse measured twice every week; assay type: functional, organism-based
[16] = molecular target: RAC-alpha serine/threonine-protein kinase (Homo sapiens, UniProt P31749); conditions: Huh-7, 100 to 1000 nM
Description: Inhibition of AKT phosphorylation in human HuH7 cells at 100 to 1000 nM after 6 to 24 hrs by Western blot analysis

[17] = Cmax in Sprague-Dawley rat at 5 mg/kg; assay type: ADME, organism-based; parameters: dose 5 mg/kg; conditions: in vivo
[18] = AUC in Sprague-Dawley rat at 5 mg/kg; assay type: ADME, organism-based; conditions: in vivo
[19] = Half life in Sprague-Dawley rat at 5 mg/kg; assay type: ADME, organism-based; conditions: in vivo
[20] = Mean residence time in Sprague-Dawley rat at 5 mg/kg; assay type: ADME, organism-based; conditions: in vivo
[21] = Apparent volume of distribution during terminal phase in Sprague-Dawley rat at 5 mg/kg; assay type: ADME, organism-based; conditions: in vivo, read-out: Vz/F
[22] = Cytotoxicity against human MHCC97H cells assessed as reduction in cell survival incubated for 3 days by cell titre-glo assay; assay type: functional, cell-based; conditions: 72 h
[23] = Cytotoxicity against human MHCC97L cells assessed as reduction in cell survival incubated for 3 days by cell titre-glo assay; assay type: functional, cell-based; conditions: 72 h
[24] = Cytotoxicity against human MKN45 cells assessed as reduction in cell survival incubated for 3 days by cell titre-glo assay; assay type: functional, cell-based; conditions: MKN-45, 72 h
NCI-H1993 [25] = test: Cytotoxicity against human NCI-H1993 cells assessed as reduction in cell survival incubated for 3 days by cell titre-glo assay; assay type: functional, cell-based; conditions: NCI-H1993, 72 h
[26] = Cytotoxicity against human HuH7 cells assessed as reduction in cell survival incubated for 3 days by cell titre-glo assay; assay type: functional, cell-based; conditions: Huh-7, 72 h
NCI-N87 = test: Cytotoxicity against human NCI-N87 cells assessed as reduction in cell survival incubated for 3 days by cell titre-glo assay; assay type: functional, cell-based; conditions: NCI-N87, 72 h
NCI-H1975 = test: Cytotoxicity against human NCI-H1975 cells assessed as reduction in cell survival incubated for 3 days by cell titre-glo assay; assay type: functional, cell-based; conditions: NCI-H1975, 72 h
A549 = test: Cytotoxicity against human A549 cells assessed as reduction in cell survival incubated for 3 days by cell titre-glo assay; assay type: functional, cell-based; conditions: A549, 72 h
[27] = Cytotoxicity against human HCCLM3 cells assessed as reduction in cell survival incubated for 3 days by cell titre-glo assay; assay type: functional, cell-based; conditions: HCCLM3, 72 h

In the case of CN1C(=O)COc2c1cnc1ccc(Sc3nnc4c(OC(F)F)cc(-c5cnn(C)c5)cn34)cc21, the IC50 [1] is reported as > 1000 nM and the IC50 [2] is reported as > 1000 nM.
Work on COCCN1C(=O)COc2c1cnc1ccc(Sc3nnc4ccc(-c5cnn(C)c5)cn34)cc21 yielded an IC50 [2] of 19.1 nM.
Work on CN1C(=O)COc2c1cnc1ccc(Sc3nnc4ccc(-c5cnn(C)c5)cn34)cc21 yielded an IC50 [2] of 3 nM.
For CN1C(=O)COc2c1cnc1ccc(Sc3nnc4c(F)cc(-c5cnn(C)c5)cn34)cc21.CS(=O)(=O)O, the inhibition in vivo at 10 mg/kg [3] was 29.5%, the inhibition in vivo at 30 mg/kg [4] was 34.2% and the inhibition in vivo at 60 mg/kg [5] was 61.4%. For the same compound, the inhibition in vivo at 10 mg/kg (NCI-H1993 [6]; NCI-H1993, po, read-out: TGI) was 24.4%, the inhibition in vivo at 30 mg/kg (NCI-H1993 [7]) was 19.5% and the inhibition in vivo at 60 mg/kg (NCI-H1993 [8]) was 24.9%. The CL/F [9] was 0.68 mL/min/kg, the Activity (Mus musculus [10]) was “Non-toxic” and the Activity (Mus musculus [11]) was “Non-toxic”. The Activity (Mus musculus [12]) was “Non-toxic”, the NOAEL at 336 h [13] was 600 mg/kg/day and the NOAEL at 672 h [14] was 225 mg/kg/day.
Cn1cc(-c2cc(F)c3nnc(Sc4ccc5ncc6c(c5c4)OC[C@H]4CCCN64)n3c2)cn1 gave an IC50 [2] of 29.2 nM.
Work on Cn1cc(-c2ccc3nnc(Sc4ccc5ncc6c(c5c4)OCC(=O)N6)n3c2)cn1 yielded an IC50 [2] of 85.8 nM.
Cn1cc(-c2cc(F)c3nnc(Sc4ccc5ncc6c(c5c4)OC[C@@H]4CCCN64)n3c2)cn1 gave an IC50 [2] of 327 nM.
With COCCN1C(=O)COc2c1cnc1ccc(Sc3nnc4c(F)cc(-c5cnn(C)c5)cn34)cc21 the IC50 [2] was 4.5 nM.
Cn1cc(-c2cc(F)c3nnc(Sc4ccc5ncc6c(c5c4)OCC(=O)N6)n3c2)cn1 showed an IC50 [2] of 17.8 nM.
Cn1cc(-c2cc(F)c3nnc(Sc4ccc5ncc6c(c5c4)OCCN6C(=O)C4CC4)n3c2)cn1 showed an IC50 [2] of 12.3 nM.
With CN1C(=O)COc2c1cnc1ccc(Sc3nnc4c(F)cc(-c5cnn(C)c5)cn34)cc21 the inhibition (Huh-7) was “inactive”, the TGI (MKN-45) was “Dose-dependent effect” and the TGI (NCI-H1993 [15]) was “Dose-dependent effect”. For the same compound, the inhibition [16] was “inactive”.
Compound Cn1cc(-c2ccc3nnc(C(F)(F)c4ccc5ncccc5c4)n3n2)cn1 [JNJ-38877605] has a Cmax [17] of 2370 ng/mL, an AUC [18] of 17300 ng·h/mL and a half-life [19] of 178 min. It also gave an MRT [20] of 4.9 h, a CL/F [9] of 5.81 mL/min/kg and a Vd/F [21] of 1.48 L/kg.
Work on Cn1cc(-c2ccc3nnc(Sc4ccc5ncccc5c4)n3n2)cn1 [SGX-523] yielded an IC50 [2] of 3.9 nM, an IC50 [22] of 11 nM and an IC50 [23] of 18 nM. The IC50 [24] was 15 nM, the IC50 (NCI-H1993 [25]) was 25 nM and the IC50 [26] was > 10 µM. For the same compound, the IC50 (NCI-N87) was > 10 µM, the IC50 (NCI-H1975) was > 10 µM and the IC50 (A549) was > 10 µM. For the same compound, the IC50 [27] was 24 nM, the inhibition in vivo at 10 mg/kg [3] was 11.2% and the TGI (NCI-H1993 [6]) was “inactive”.
